# Data as given in patent US20070128217A1 (priority 2003, published 2007).
# Legend:
# [1] = test system: antibodies in sera from SARS patients (sera 1a, 1b, 2, 6, 37, 62, London, SARS-yellow, SARS-green); type: binding, human; design: Binding of serum 6 to linear peptides of protein X1 of SARS-CoV Urbani / Binding of serum 37 to linear peptides of protein X1 of SARS-CoV Urbani / Binding of serum 6 to looped/cyclic peptide (PEPSCAN-ELISA) / Binding of serum 37 to looped/cyclic peptide (PEPSCAN-ELISA) / Binding of serum 37 to looped/cyclic peptides of protein X1 of SARS-CoV Urbani / Binding of serum 6 to linear peptides of protein X2 / Binding of serum 37 to linear peptides of protein X2 / Binding of serum 37 to looped/cyclic peptides of protein X2 of SARS-CoV Urbani / Binding of serum 6 to linear peptides of protein M of SARS-CoV Urbani / Binding of serum 37 to linear peptides of protein M of SARS-CoV Urbani / Binding of serum 6 to looped/cyclic peptides of protein M of SARS-CoV Urbani / Binding of serum 37 to looped/cyclic peptides of protein M of SARS-CoV Urbani / Binding of serum 6 to linear peptides of protein X3 of SARS-CoV Urbani / Binding of serum 37 to linear peptides of protein X3 of SARS-CoV Urbani / Binding of serum 37 to looped/cyclic peptides of protein X3 of SARS-CoV Urbani / Binding of serum 6 to linear peptides of protein X4 of SARS-CoV Urbani / Binding of serum 37 to linear peptides of protein X4 of SARS-CoV Urbani / Binding of serum 37 to looped/cyclic peptides of protein X4 of SARS-CoV Urbani / Binding of serum 6 to linear peptides of protein X5 of SARS-CoV Urbani / Binding of serum 37 to linear peptides of protein X5 of SARS-CoV Urbani / Binding of serum 37 to looped/cyclic peptides of protein X5 of SARS-CoV Urbani / Binding of serum 6 to linear peptides of protein N of SARS-CoV Urbani / Binding of serum 37 to linear peptides of protein N of SARS-CoV Urbani / Binding of serum 6 to linear peptide (PEPSCAN-ELISA) / Binding of serum 1a to looped/cyclic peptides of protein N of SARS-CoV Urbani / Binding of serum 1b to looped/cyclic peptides of protein N of SARS-CoV Urbani / Binding of serum 2 to looped/cyclic peptides of protein N of SARS-CoV Urbani / Binding of serum 6 to looped/cyclic peptides of protein N of SARS-CoV Urbani / Binding of serum 37 to looped/cyclic peptides of protein N of SARS-CoV Urbani / Binding of serum 62 to looped/cyclic peptides of protein N of SARS-CoV Urbani / Binding of serum London to looped/cyclic peptides of protein N of SARS-CoV Urbani / Binding of serum SARS-green to looped/cyclic peptides of protein N of SARS-CoV Urbani: unit not given here
# [2] = test system: control sera (pooled serum of ten healthy LUMC hospital workers; commercial negative donor pooled serum from the Dutch bloodbank); type: binding, human; design: Binding of Control serum LUMC to linear peptides / Binding of Control serum Blood-bank to linear peptides / Binding of Control serum LUMC to looped peptides / Binding of Control Serum Blood-Bank to Looped peptides / Binding of Control serum LUMC to linear peptides of the protein M of SARS-CoV Urbani / Binding of Control serum Blood-bank to linear peptides of the protein M of SARS-CoV Urbani / Binding of Control serum LUMC to looped peptides of the protein M of SARS-CoV Urbani / Binding of Control Serum Blood-Bank to Looped peptides of the protein M of SARS-CoV Urbani: unit not given here
# [3] = test system: rabbit serum obtained by immunizing a rabbit with the SARS-CoV strain Frankfurt 1; type: binding; design: Binding of a rabbit serum to linear peptides / Binding of a rabbit serum to looped peptides / Rabbit serum linear peptides / Rabbit serum looped peptides / Binding of a rabbit serum to linear peptides of protein N of SARS-CoV Urbani (Rabbit serum linear peptides) / Binding of a rabbit serum to looped/cyclic peptides of protein N of SARS-CoV Urbani (Rabbit serum looped peptides): unit not given here
sequence,measurement,setting,value
ALTCTSTHFAFACAD,Binding of serum 1a to linear peptides of protein X4 of SARS-CoV Urbani,[1],0.8
same,Binding of serum 1a to looped/cyclic peptides of protein X4 of SARS-CoV Urbani,[1],0.8
same,Binding of serum 1b to linear peptides of protein X4 of SARS-CoV Urbani,[1],0.8
same,Binding of serum 1b to looped/cyclic peptides of protein X4 of SARS-CoV Urbani,[1],0.7
same,Binding of serum 2 to linear peptides of protein X4 of SARS-CoV Urbani,[1],0.5
same,Binding of serum 2 to looped/cyclic peptides of protein X4 of SARS-CoV Urbani,[1],0.7
same,Binding of serum 6 to linear peptides of protein X4 of SARS-CoV Urbani,[1],0.6
same,Binding of serum 6 to looped/cyclic peptides of protein X4 of SARS-CoV Urbani,[1],0.7
same,Binding of serum 37 to linear peptides of protein X4 of SARS-CoV Urbani,[1],0.9
same,Binding of serum 37 to looped/cyclic peptides of protein X4 of SARS-CoV Urbani,[1],0.9
same,Binding of serum 62 to linear peptides of protein X4 of SARS-CoV Urbani,[1],0.9
same,Binding of serum 62 to looped/cyclic peptides of protein X4 of SARS-CoV Urbani,[1],0.9
same,Binding of serum London to linear peptides of protein X4 of SARS-CoV Urbani,[1],0.8
same,Binding of serum London to looped/cyclic peptides of protein X4 of SARS-CoV Urbani,[1],0.3
same,Binding of serum SARS-green to linear peptides of protein X4 of SARS-CoV Urbani,[1],0.8
same,Binding of serum SARS-green to looped/cyclic peptides of protein X4 of SARS-CoV Urbani,[1],0.8
same,Binding of serum SARS-yellow to linear peptides of protein X4 of SARS-CoV Urbani,[1],0.7
same,Binding of serum SARS-yellow to looped/cyclic peptides of protein X4 of SARS-CoV Urbani,[1],0.8
same,Binding of Control Serum Blood-Bank to Looped peptides,[2],0.9
same,Binding of Control serum Blood-bank to linear peptides,[2],0.7
same,Binding of Control serum LUMC to linear peptides,[2],0.8
same,Binding of Control serum LUMC to looped peptides,[2],0.8
same,Rabbit serum linear peptides,[3],0.6
same,Rabbit serum looped peptides,[3],0.6
LRGTIVTRPLMESEL,Binding of serum 1a to linear peptides of protein M of SARS-CoV Urbani,[1],0.7
same,Binding of serum 1b to linear peptides of protein M of SARS-CoV Urbani,[1],0.5
same,Binding of serum 2 to linear peptides of protein M of SARS-CoV Urbani,[1],0.3
same,Binding of serum 6 to linear peptides of protein M of SARS-CoV Urbani,[1],0.3
same,Binding of serum 37 to linear peptides of protein M of SARS-CoV Urbani,[1],0.5
same,Binding of serum 62 to linear peptides of protein M of SARS-CoV Urbani,[1],0.4
same,Binding of serum London to linear peptides of protein M of SARS-CoV Urbani,[1],0.3
same,Binding of serum SARS-green to linear peptides of protein M of SARS-CoV Urbani,[1],0.4
same,Binding of serum SARS-yellow to linear peptides of protein M of SARS-CoV Urbani,[1],1.0
same,"Recognition of the peptide by sera of SARS-CoV infected individuals, and form (linear, looped/cyclic) in which it is recognized",[1],recognized in looped/cyclic form
same,Binding of Control Serum Blood-Bank to Looped peptides of the protein M of SARS-CoV Urbani,[2],0.7
same,Binding of Control serum Blood-bank to linear peptides of the protein M of SARS-CoV Urbani,[2],0.5
same,Binding of Control serum LUMC to linear peptides of the protein M of SARS-CoV Urbani,[2],0.5
same,Binding of Control serum LUMC to looped peptides of the protein M of SARS-CoV Urbani,[2],0.7
same,Rabbit serum linear peptides,[3],0.0
same,Rabbit serum looped peptides,[3],0.5
VQTCTPNVTINCQDP,Binding of serum 1a to linear peptides of protein X5 of SARS-CoV Urbani,[1],0.7
same,Binding of serum 1a to looped/cyclic peptides of protein X5 of SARS-CoV Urbani,[1],0.6
same,Binding of serum 1b to linear peptides of protein X5 of SARS-CoV Urbani,[1],0.8
same,Binding of serum 1b to looped/cyclic peptides of protein X5 of SARS-CoV Urbani,[1],0.5
same,Binding of serum 2 to linear peptides of protein X5 of SARS-CoV Urbani,[1],0.7
same,Binding of serum 2 to looped/cyclic peptides of protein X5 of SARS-CoV Urbani,[1],0.7
same,Binding of serum 6 to linear peptides of protein X5 of SARS-CoV Urbani,[1],0.8
same,Binding of serum 6 to looped/cyclic peptides of protein X5 of SARS-CoV Urbani,[1],0.2
same,Binding of serum 37 to linear peptides of protein X5 of SARS-CoV Urbani,[1],0.7
same,Binding of serum 37 to looped/cyclic peptides of protein X5 of SARS-CoV Urbani,[1],0.6
same,Binding of serum 62 to linear peptides of protein X5 of SARS-CoV Urbani,[1],0.8
same,Binding of serum 62 to looped/cyclic peptides of protein X5 of SARS-CoV Urbani,[1],0.6
same,Binding of serum London to linear peptides of protein X5 of SARS-CoV Urbani,[1],0.8
same,Binding of serum London to looped/cyclic peptides of protein X5 of SARS-CoV Urbani,[1],0.3
same,Binding of serum SARS-green to linear peptides of protein X5 of SARS-CoV Urbani,[1],0.7
same,Binding of serum SARS-green to looped/cyclic peptides of protein X5 of SARS-CoV Urbani,[1],0.3
same,Binding of serum SARS-yellow to linear peptides of protein X5 of SARS-CoV Urbani,[1],0.3
same,Binding of serum SARS-yellow to looped/cyclic peptides of protein X5 of SARS-CoV Urbani,[1],0.3
same,Binding of Control Serum Blood-Bank to Looped peptides,[2],0.6
same,Binding of Control serum Blood-bank to linear peptides,[2],0.6
same,Binding of Control serum LUMC to linear peptides,[2],0.5
same,Binding of Control serum LUMC to looped peptides,[2],0.4
same,Rabbit serum linear peptides,[3],0.5
same,Rabbit serum looped peptides,[3],0.4
